Assay results from patent US9546176B2, “Small molecule bicyclic and tricyclic CFTR correctors” (DISCOVERYBIOMED, INC., priority 2012, dated 2017).
Where two headings read alike, the source gives them in different places.

Biological target: T1, delF508-CFTR (Homo sapiens, UniProt P13569, DEL508-508)
T1 construct: endogenous in cells; host or cells: CFBE41o- human CF bronchial epithelial cells (delF508 homozygous)
Assay: SPQ halide-sensitive fluorescence dye assay for rescue of halide efflux (8-point concentration-response)
Type: cell-based
Settings: for EC50: read-out: SPQ EC50; for potency and efficacy compared with VX-809 in SPQ assay: versus VX-809
Method: The method of profiling can include detecting the rescue of halide efflux from a cell. The step of detecting a rescue of halide efflux from the cell can be monitored using the halide quenched dye 6-methoxy-N-(3-sulfopropyl)-quinolinium (SPQ, Molecular Probes Inc., Eugene, Oreg.). In this method, cells are treated with a compound as described herein for a period of time (e.g., 48 hours). The rescue or correction of halide efflux is then detected using the SPQ assay with the halide dye. […] Optionally, the halide efflux is chloride efflux. The method of screening can further comprise performing the method with multiple concentrations of the compound.
The compounds were initially subjected to the SPQ halide-sensitive fluorescence dye profiling assay for rescue or correction of membrane chloride ion permeability or transport with an 8-point concentration-response curve. The EC50 values for the compounds described herein were determined using SPQ (Table 1). The ΔSPQ value was calculated by determining the difference between the maximum and minimum SPQ values for the compounds.
To perform the SPQ high throughput screening assay, CFBE41o-cells were seeded into 96-well microtiter plates and were loaded with the fluorescent halide-sensitive dye, SPQ, in serum-containing culture medium. Certain wells were loaded with known positive control corrector molecules, including the industry standard Vertex 809 (VX-809; Vertex Pharmaceuticals, Cambridge, Mass.) at 3 μM, which is the maximally effective profiling dose for VX-809. The test compounds were loaded into wells and were tested in triplicate wells at a 10 μM dose and incubated over 48 hours at room temperature. During the 48 hour period, SPQ was absorbed. Plates were washed in a sodium chloride (NaCl) based Ringer and read once over two minutes to set the baseline SPQ fluorescence activity. Then, NaCl was replaced by sodium nitrate (NaNO3) based Ringer. The plates were read twice over four minutes. The primary high throughput screen (HTS) data were analyzed to detect any function of rescued delF508-CFTR under basal conditions. The plate was read up to two times to complete the SPQ HTS assay.

T1 sequence (P13569 with tags, fused parts or gaps DEL508-508): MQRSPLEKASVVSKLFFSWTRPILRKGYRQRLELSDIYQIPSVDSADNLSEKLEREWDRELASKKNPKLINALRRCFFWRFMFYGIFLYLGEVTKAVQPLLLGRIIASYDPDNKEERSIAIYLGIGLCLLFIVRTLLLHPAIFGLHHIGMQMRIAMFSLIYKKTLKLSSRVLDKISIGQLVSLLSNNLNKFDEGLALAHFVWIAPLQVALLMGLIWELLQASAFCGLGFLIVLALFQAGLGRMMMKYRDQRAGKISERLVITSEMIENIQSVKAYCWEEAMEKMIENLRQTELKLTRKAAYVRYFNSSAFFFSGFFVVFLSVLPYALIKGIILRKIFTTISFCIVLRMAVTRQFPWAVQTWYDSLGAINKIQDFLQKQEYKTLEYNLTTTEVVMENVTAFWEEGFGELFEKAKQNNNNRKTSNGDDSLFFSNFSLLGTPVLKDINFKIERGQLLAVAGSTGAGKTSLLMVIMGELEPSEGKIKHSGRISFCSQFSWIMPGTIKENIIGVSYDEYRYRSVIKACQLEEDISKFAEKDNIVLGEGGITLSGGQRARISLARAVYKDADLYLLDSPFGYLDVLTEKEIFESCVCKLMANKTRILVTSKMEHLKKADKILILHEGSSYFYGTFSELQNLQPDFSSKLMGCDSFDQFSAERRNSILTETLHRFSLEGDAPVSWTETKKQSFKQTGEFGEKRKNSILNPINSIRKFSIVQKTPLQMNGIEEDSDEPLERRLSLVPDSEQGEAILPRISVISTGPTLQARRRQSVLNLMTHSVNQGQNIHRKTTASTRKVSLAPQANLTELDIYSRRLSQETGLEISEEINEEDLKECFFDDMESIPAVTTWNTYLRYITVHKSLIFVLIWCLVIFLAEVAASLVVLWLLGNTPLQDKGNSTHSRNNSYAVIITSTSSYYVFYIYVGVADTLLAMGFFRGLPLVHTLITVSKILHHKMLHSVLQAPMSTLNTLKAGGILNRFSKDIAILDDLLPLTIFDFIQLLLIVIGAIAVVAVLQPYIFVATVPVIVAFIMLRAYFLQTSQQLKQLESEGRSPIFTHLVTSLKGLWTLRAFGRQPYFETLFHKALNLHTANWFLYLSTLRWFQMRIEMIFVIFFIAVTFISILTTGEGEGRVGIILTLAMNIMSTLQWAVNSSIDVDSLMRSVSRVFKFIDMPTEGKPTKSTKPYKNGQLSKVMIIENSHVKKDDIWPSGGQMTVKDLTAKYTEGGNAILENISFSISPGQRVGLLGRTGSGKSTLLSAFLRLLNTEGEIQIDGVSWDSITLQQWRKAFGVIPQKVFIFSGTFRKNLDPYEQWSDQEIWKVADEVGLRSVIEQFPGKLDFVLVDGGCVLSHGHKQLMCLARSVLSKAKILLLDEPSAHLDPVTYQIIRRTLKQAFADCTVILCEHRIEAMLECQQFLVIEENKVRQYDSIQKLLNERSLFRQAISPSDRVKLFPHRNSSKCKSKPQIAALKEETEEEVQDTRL

Row | Compound | ΔSPQ (difference between maximum and minimum SPQ values) (CFBE41o- cells, 48 h) [RFU] | EC50 (CFBE41o- cells, 48 h) [µM] | potency and efficacy compared with VX-809 in SPQ assay | ΔSPQ (Trial 2) | EC50 (Trial 2) [µM]
1 | CCC(C)n1c(C)c(C)n2c3c(=O)n(CC)c(=O)n(C)c3nc12 (stereo not drawn) [Compound I-58] | 3361 | 8.4 | – | – | –
2 | Cn1c(=O)n(Cc2ccccc2)c(=O)c2c1nc1oc(C(C)(C)C)cn12 [Compound II-2] | 13312 | 10.4 | superior potency and efficacy to VX-809 | – | –
3 | CCn1c(=O)c2c(nc3oc(C(C)(C)C)cn32)n(C)c1=O [Compound II-3] | 3935 | 8.6 | superior potency and efficacy to VX-809 | (Trial 2: 4413) RFU | 12.7
4 | C=CCn1c(Oc2ccc(Br)cc2)nc2c1c(=O)n(C)c(=O)n2C [Compound III-1] | 8353 | 11.1 | – | – | –
5 | Cn1c(=O)c2[nH]c(N3CCN(c4ccccc4O)CC3)nc2n(C)c1=O [Compound III-2] | 9814 | 3.6 | superior potency and efficacy to VX-809 | – | –
6 | CCCN1N=C(C)Cn2c1nc1c2c(=O)n(CC(C)C)c(=O)n1C [Compound V-1] | 12233 | 17.1 | – | – | –
7 | C=C(C)CN1N=C(C)Cn2c1nc1c2c(=O)n(C/C=C/C)c(=O)n1C [Compound V-2] | 10602 | 17.1 | – | – | –
8 | CCCn1c(=O)c2c(nc3n2C(C)C(C)=NN3CC(C)C)n(C)c1=O (stereo not drawn) [Compound V-3] | 7753 | 4 | superior potency and efficacy to VX-809 | – | –
9 | CCCCn1c(=O)c2c(nc3n2CC(C)=NN3CCC)n(C)c1=O [Compound V-4] | 12028 | 7 | superior potency and efficacy to VX-809 | – | –
10 | C=CCn1c(=O)c2c(nc3n2CC(C(C)(C)C)=NN3CC)n(C)c1=O [Compound V-5] | 9200 | 8 | – | – | –
11 | C=CCN1N=C(C)Cn2c1nc1c2c(=O)n(CCCC)c(=O)n1C [Compound V-6] | 8952 | > 30 | – | – | –
12 | C=CCN1N=C(C)Cn2c1nc1c2c(=O)n(CC(C)C)c(=O)n1C [Compound V-7] | 12223 | 23 | – | – | –
13 | CC1=NN(C)c2nc3c(c(=O)n(Cc4cccc(C)c4)c(=O)n3C)n2C1 [Compound V-8] | 5149 | 14 | – | – | –
14 | C=CCN1N=C(C)C(C)n2c1nc1c2c(=O)n(CCCC)c(=O)n1C (stereo not drawn) [Compound V-9] | 10773 | 8.3 | – | – | –
15 | CCCn1c(=O)c2c(nc3n2CC(C)=NN3CCC(C)C)n(C)c1=O [Compound V-10] | 9555 | 8.8 | – | – | –
16 | CC1=NNc2nc3c(c(=O)n(Cc4cccc(C)c4)c(=O)n3C)n2C1C (stereo not drawn) [Compound V-11] | 2625 | 11.3 | – | – | –
17 | C/C=C/Cn1c(=O)c2c(nc3n2C(C)C(C)=NN3CC)n(C)c1=O (stereo not drawn) [Compound V-12] | 6365 | > 30 | – | – | –
18 | CCCN1N=C(C)Cn2c1nc1c2c(=O)n(CCC)c(=O)n1C [Compound V-13] | 4602 | > 30 | – | – | –
19 | C/C=C/CN1N=C(C)Cn2c1nc1c2c(=O)n(CC(C)C)c(=O)n1C [Compound V-14] | 5767 | > 30 | – | – | –
20 | C=CCN1N=C(C)C(C)n2c1nc1c2c(=O)n(CCC)c(=O)n1C (stereo not drawn) [Compound V-15] | 4548 | > 30 | – | – | –
21 | CCCN1N=C(C)C(C)n2c1nc1c2c(=O)n(CCC)c(=O)n1C (stereo not drawn) [Compound V-16] | 5519 | > 30 | – | – | –
22 | C=CCn1c(=O)c2c(nc3n2CC(C)=NN3Cc2ccccc2)n(C)c1=O [Compound V-17] | 3979 | 23 | – | – | –

Row | Compound | ΔSPQ (difference between maximum and minimum SPQ values) (CFBE41o- cells, 48 h) [RFU] | EC50 (CFBE41o- cells, 48 h) [µM] | potency and efficacy compared with VX-809 in SPQ assay | ΔSPQ (Trial 2) | EC50 (Trial 2) [µM]
23 | C/C=C/Cn1c(=O)c2c(nc3n2CC(C)=NN3C(C)C)n(C)c1=O [Compound V-18] | 7507 | 11.1 | – | – | –
24 | C=CCN1N=C(C)Cn2c1nc1c2c(=O)n(CCC)c(=O)n1C [Compound V-19] | 1995 | 3.6 | – | – | –
25 | C/C=C/CN1N=C(C)Cn2c1nc1c2c(=O)n(CCC)c(=O)n1C [Compound V-20] | 4351 | 7.3 | – | – | –
26 | C=C(C)CN1N=C(C)C(C)n2c1nc1c2c(=O)n(C/C=C/C)c(=O)n1C (stereo not drawn) [Compound V-21] | 7505 | > 30 | – | – | –
27 | C=C(C)CN1N=C(C)Cn2c1nc1c2c(=O)n(CC)c(=O)n1C [Compound V-22] | 3369 | 6.5 | – | – | –
28 | CCn1c(=O)c2c(nc3n2C(C)C(C)=NN3CCC(C)C)n(C)c1=O (stereo not drawn) [Compound V-23] | 1055 | > 30 | – | – | –
29 | CC1=NNc2nc3c(c(=O)n(CCCc4ccccc4)c(=O)n3C)n2C1 [Compound V-24] | 3796 | > 30 | – | – | –
30 | C=C(C)CN1N=C(C)Cn2c1nc1c2c(=O)n(C)c(=O)n1C [Compound V-25] | 1927 | 10.6 | – | – | –
31 | C/C=C/Cn1c(=O)c2c(nc3oc(C(C)(C)C)cn32)n(C)c1=O [II-1] | 7993 | 12.4 | – | – | –
32 | C=C(C)Cn1c(=O)c2c(nc3oc(C(C)(C)C)cn32)n(C)c1=O [II-4] | 3625 | > 30 | – | – | –
33 | CCn1c(N2CCN(Cc3ccccc3C)CC2)nc2c1c(=O)[nH]c(=O)n2C [III-3] | 7195 | > 30 | – | – | –
34 | CCn1c(N2CCN(CCCc3ccccc3)CC2)nc2c1c(=O)[nH]c(=O)n2C [III-4] | 5256 | > 30 | – | – | –
35 | CCOC(=O)C1CCCN(c2nc3c(c(=O)n(C)c(=O)n3C)n2CC)C1 (stereo not drawn) [III-5] | 4528 | 12.3 | – | – | –
36 | COc1ccc(N2CCN(Cc3nc4c(c(=O)n(C)c(=O)n4C)n3C(C)C)CC2)cc1 [III-6] | 2069 | 5.1 | – | – | –
37 | CCCn1c(=O)c2c(nc3n2CCCN3Cc2ccccc2)n(C)c1=O [IV-1] | 12224 | 10.7 | – | – | –
38 | COc1ccc(N2CC(C)Cn3c2nc2c3c(=O)n(C)c(=O)n2C)cc1 (stereo not drawn) [IV-2] | 2279 | > 30 | – | – | –
39 | CCn1c(=O)c2c(nc3n2CCCN3c2cccc(OC)c2)n(C)c1=O [IV-3] | 15138 | 25.5 | – | – | –
40 | COc1ccc(N2CCCn3c2nc2c3c(=O)n(C)c(=O)n2C)cc1 [IV-4] | 3614 | 11.1 | – | – | –
41 | COc1cccc(N2CC(C)Cn3c2nc2c3c(=O)n(C)c(=O)n2C)c1 (stereo not drawn) [IV-5] | 2122 | 3.4 | – | – | –
42 | CCCn1c(=O)c2c(nc3n2CCCN3c2ccc(C)cc2)n(C)c1=O [IV-6] | 8746 | > 30 | – | – | –
43 | CCc1ccc(N2CC(C)Cn3c2nc2c3c(=O)[nH]c(=O)n2C)cc1 (stereo not drawn) [IV-7] | 3692 | 9.7 | – | – | –
